In paper PMC10812557, “Progressive Design of a Ranatuerin-2 Peptide from Amolops wuyiensis: Enhancement of Bioactivity and In Vivo Efficacy” (Antibiotics, 2023):
Read-outs that look alike come from different tables or passages of the source. Bridge positions count the residues as written; N and C are the ends. Peptide text beside a SMILES is read from it.

Tests used:
[1] = system: P. aeruginosa (ATCC 9027); format: cell-based, Pseudomonas aeruginosa
Protocol: (§1) As a previous study described in detail, the ability of R2AW and its analogues to inhibit and eradicate the formation of biofilm was investigated. The MBIC is the lowest concentration which inhibits the formation of biofilm. The MBEC is the minimum concentration that eradicates biofilm. Six bacterial strains were used, as described above. Briefly, the bacteria were cultured and then diluted to 5 × 10^5 CFU/mL. In MBIC assays, 1 μL of each concentration of R2AW and its analogues (ranging from 512 × 10^2 μM to 100 μM) was mixed with 99 μL of diluted bacterial suspension in a 96-well plate for 16-20 h at 37 °C. As for MBEC assays, 100 μL of cultured bacteria were seeded in a 96-well plate and incubated on the shaking incubator at 37 °C overnight for biofilm formation. Subsequently, each well was rinsed twice with 100 μL sterile PBS to remove planktonic cells, and then replaced with 100 μL of each concentration (ranging from 512 μM to 1 μM) of peptides. After 24 h incubation, the biofilm was washed twice with 100 μL of PBS and fixed with methanol. Next, the same volume of 0.1% crystal violet solution (Sigma-Aldrich, Gillingham, UK) was added to each well to stain the biofilm. After that, 100 μL of 30% of acetic acid (Sigma-Aldrich, Gillingham, UK) was transferred to each well for dissolution. The solutions were transferred into a new 96-well plate and the absorbances of wells was monitored using a Synergy HT plate reader set to 595 nm.

[2] = system: K. pneumoniae (ATCC 43816); format: cell-based
Source text: (§2) The MIC and MBC assays were used to assess the inhibitory activities of all 5 analogues of R2AW on the growth of planktonic microorganisms. The MIC is the lowest concentration that prevents the viable growth of bacteria. The MBC is the lowest concentration that results in bacterial death. Six microorganisms were used to detect the antimicrobial activity of peptides, including Gram-positive bacteria S. aureus (NCTC 10788), MRSA (NCTC 12493), Enterococcus faecalis (E. faecalis) (NCTC 12697), Gram-negative bacteria E. coli […], Klebsiella pneumoniae (K. pneumoniae) (ATCC 43816), and Pseudomonas aeruginosa (P. aeruginosa) (ATCC 9027). According to the assay described previously, the microorganisms were inoculated at 37 °C overnight and diluted to 5 × 10^5 CFU/mL after reaching the logarithmic growth period. The peptide stock solution at the concentration of 512 × 10^2 μM was prepared and diluted to 100 μM by a 2-fold dilution. One μL of each concentration of peptide solution was incubated with 99 μL of bacterial subculture in the 96-well plate for 18 h at 37 °C. The absorbance was determined at a wavelength of 550 nm using a Synergy HT plate reader (Bio Tek, Washington, DC, USA). […] As for those wells that were clearly visible, 20 μL of the solution was dropped onto the Mueller Hinton agar (MHA) dish and then incubated at 37 °C overnight. The lowest concentration with no colony growth was determined as the MBC.

[3] = system: P. aeruginosa (ATCC 9027); format: cell-based
Source text: as §2

[4] = system: E. coli (ATCC 8739); format: cell-based
Source text: as §2

[5] = system: MRSA (NCTC 12493); assay: microbe, parasite or virus in culture; format: cell-based; details: MRSA (NCTC 12493)
Source text: as §2

[6] = system: E. faecium (NTCC 12697); assay: microbe, parasite or virus in culture; format: cell-based
Source text: as §2

[7] = system: S. aureus (NCTC 10788); assay: microbe, parasite or virus in culture; format: cell-based
Source text: as §2

[8] = system: HCT116; format: cell-based, human; details: 24 h
Protocol: (§3) Five human cancer cell lines of non-small-cell lung cancer H838, human prostate carcinoma PC-3, human neuronal glioblastoma U251MG, human breast cancer cell MCF-7, and colorectal carcinoma HCT116 were used to detect the antiproliferative abilities of R2AW and its five analogues. According to the procedures in a previous article, cells (8000 cells/well) were seeded into the 96-well tissue culture plates and incubated at 37 °C with 5% CO2 overnight. The solutions of R2AW and its analogues at concentrations of 10^−4 M to 10^−9 M were prepared in the serum-free medium. Next, cells in each well were treated with 100 μL of each peptide solution for 24 h. Subsequently, 10 μL of 5 mg/mL MTT (3-(4, 5-Dimethylthiazol-2-yl-)-2, 5-Diphehyltetrazolium Bromide) was added to each well followed by 37 °C incubation for 2 h. After that, the liquid in each well was removed and 100 μL of DMSO was added to dissolve the purple formazan. The plate was placed on a shaking incubator for 10 min, and the absorbance was detected at 550 nm using a Synergy HT plate reader (Biotech, Minneapolis, MN, USA).

[9] = system: PC-3; format: cell-based, human; details: 24 h
Protocol: as §3

[10] = system: MCF-7; format: cell-based, human; details: 24 h
Protocol: as §3

[11] = system: H838; format: cell-based, human; details: 24 h
Protocol: as §3

[12] = system: U251MG; format: cell-based, human; details: 24 h
Protocol: as §3

[13] = system: E. faecium (NTCC 12697); format: cell-based
Protocol: as §1

[14] = system: MRSA (NCTC 12493); format: cell-based, methicillin-resistant Staphylococcus aureus; details: NCTC 12493
Protocol: as §1

[15] = system: S. aureus (NCTC 10788); format: cell-based, Staphylococcus aureus
Protocol: as §1

[16] = system: E. coli (ATCC 8739); format: cell-based, Escherichia coli
Protocol: as §1

[17] = system: K. pneumoniae (ATCC 43816); format: cell-based, Klebsiella pneumoniae
Protocol: as §1

[18] = system: five human cancer cell lines; format: cell-based; details: 24 h
Protocol: as §3

Row | Structure (SMILES) | MBEC [1] [µM] | MBIC [1] [µM] | MBC ([2]; ATCC 43816, 18 h) [mg/L] | MIC ([2]; ATCC 43816, 18 h) [mg/L] | MBC ([3]; ATCC 9027, 18 h) [mg/L] | MIC ([3]; ATCC 9027, 18 h) [mg/L] | MBC ([4]; ATCC 8739, 18 h) [mg/L] | MIC ([4]; ATCC 8739, 18 h) | MBC [5] | MIC [5] [mg/L] | MBC ([6]; NTCC 12697, 18 h) [mg/L] | MIC ([6]; NTCC 12697, 18 h) [mg/L] | MBC ([7]; NCTC 10788, 18 h) [mg/L] | MIC ([7]; NCTC 10788, 18 h) | IC50 [8] [µM] | IC50 [9] [µM] | IC50 [10] [µM] | IC50 [11] [µM] | IC50 [12] [µM] | MBEC [13] [µM] | further results
1 | CC[C@H](C)[C@@H]1NC(=O)[C@H](CCCCN)NC(=O)[C@@H](NC(=O)[C@H](CCCCN)NC(=O)[C@H](CC(C)C)NC(=O)[C@H](CCCCN)NC(=O)[C@H](CC(=O)O)NC(=O)[C@H](CC(C)C)NC(=O)[C@H](CC(C)C)NC(=O)[C@@H](NC(=O)[C@H](C)NC(=O)[C@H](C)NC(=O)[C@@H](NC(=O)[C@H](CC(N)=O)NC(=O)[C@H](CCCCN)NC(=O)[C@H](C)NC(=O)[C@@H](NC(=O)[C@H](CC(N)=O)NC(=O)[C@H](CCCCN)NC(=O)[C@H](C)NC(=O)[C@@H](NC(=O)[C@H](CC(=O)O)NC(=O)[C@H](CCSC)NC(=O)[C@H](Cc2ccccc2)NC(=O)CN)[C@@H](C)O)C(C)C)C(C)C)[C@@H](C)O)CSSC[C@@H](C(=O)O)NC(=O)CNC(=O)CNC(=O)[C@H]([C@@H](C)O)NC1=O [R2AW] (H-GFMDTAKNVAKNVAATLLDKLKCKITGGC-OH; disulfide 23-29) | >512 | >512 | 771 | 385 | 1541 | 385 | 193 | 32 µM | 1541 mg/L | 770 | 771 | 770 | 193 | 32 µM | 10.8 | 5.09 | 33.2 | 10.8 | 30.8 | >512 | MBIC [13]: >512 µM; MBEC [14]: > 512 µM; MBIC [14]: 256 µM; MBEC [15]: > 512 µM; MBIC [15]: 128 µM; MBEC [16]: 512 µM; MBIC [16]: 128 µM; MBEC [17]: 512/>512 µM; MBIC [17]: 512/>512 µM; IC50 [18]: 5.09 to 33.2 µM
2 | CSCC[C@H](NC(=O)[C@H](Cc1ccccc1)NC(=O)CN)C(=O)N[C@@H](CC(=O)O)C(=O)N[C@H](C(=O)N[C@@H](C)C(=O)N[C@@H](CCCCN)C(=O)N[C@@H](CC(N)=O)C(=O)N[C@H](C(=O)N[C@@H](C)C(=O)N[C@@H](CCCCN)C(=O)N[C@@H](CC(N)=O)C(=O)N[C@H](C(=O)N[C@@H](C)C(=O)N[C@@H](C)C(=O)N[C@H](C(=O)N[C@@H](CC(C)C)C(=O)N[C@@H](CC(C)C)C(=O)N[C@@H](CC(=O)O)C(=O)N[C@@H](CCCCN)C(=O)N[C@@H](CC(C)C)C(=O)N[C@@H](CCCCN)C(N)=O)[C@@H](C)O)C(C)C)C(C)C)[C@@H](C)O [R2AW(1-22)-NH2] (H-GFMDTAKNVAKNVAATLLDKLK-NH2) | >512 | >512 | 601 | 601 | > 1202 | 1202 | 301 | 300 mg/L | 601 mg/L | 601 | 601 | 601 | 150 | 150 mg/L | 609 | 194 | 374 | 58.9 | 516 | >512 | MBIC [13]: >512 µM; MBEC [15]: > 512 µM; MBIC [15]: 128 µM; MBEC [16]: 512 µM; MBIC [16]: 256 µM; MBEC [17]: 512/>512 µM; MBIC [17]: 512/>512 µM
3 | CC[C@H](C)[C@H](NC(=O)CN)C(=O)NCC(=O)N[C@@H](C)C(=O)N[C@H](C(=O)N[C@@H](CC(C)C)C(=O)N[C@@H](CCCCN)C(=O)N[C@H](C(=O)N[C@@H](CC(C)C)C(=O)N[C@H](C(=O)N[C@H](C(=O)NCC(=O)N[C@@H](CC(C)C)C(=O)N1CCC[C@H]1C(=O)N[C@@H](C)C(=O)N[C@@H](CC(C)C)C(=O)N[C@H](C(=O)N[C@@H](CO)C(=O)N[C@@H](Cc1c[nH]c2ccccc12)C(=O)N[C@H](C(=O)N[C@@H](CCCCN)C(=O)N[C@@H](CCCNC(=N)N)C(=O)N[C@@H](CCCCN)C(=O)N[C@@H](CCCNC(=N)N)C(=O)N[C@@H](CCC(N)=O)C(=O)N[C@@H](CCC(N)=O)C(N)=O)[C@@H](C)CC)[C@@H](C)CC)[C@@H](C)O)[C@@H](C)O)C(C)C)C(C)C [Melittin, reference compound] |  |  |  |  |  |  |  |  | 2 µM |  |  |  |  |  |  |  |  |  |  |  | MBC ([2]; K. pneumoniae (ATCC 43816)): 32 µM; MIC ([2]; K. pneumoniae (ATCC 43816)): 32 µM; MBC ([3]; P. aeruginosa (ATCC 9027)): 32 µM; MBC ([4]; E. coli (ATCC 8739)): 4 µM; MBC ([6]; E. faecium (NTCC 12697)): 2 µM; MIC ([6]; E. faecium (NTCC 12697)): 2 µM; MBC ([7]; S. aureus (NCTC 10788)): 2 µM
4 | CSCC[C@H](NC(=O)[C@H](Cc1ccccc1)NC(=O)CN)C(=O)N[C@@H](CC(=O)O)C(=O)N[C@H](C(=O)N[C@@H](C)C(=O)N[C@@H](CCCCN)C(=O)N[C@@H](CC(N)=O)C(=O)N[C@H](C(=O)N[C@@H](C)C(=O)N[C@@H](CCCCN)C(=O)N[C@@H](CC(N)=O)C(=O)N[C@H](C(=O)N[C@@H](C)C(=O)N[C@@H](C)C(=O)N[C@H](C(=O)N[C@@H](CC(C)C)C(=O)N[C@@H](CC(C)C)C(=O)N[C@@H](CC(=O)O)C(=O)N[C@@H](CCCCN)C(=O)N[C@@H](CC(C)C)C(=O)N[C@@H](CCCCN)C(=O)O)[C@@H](C)O)C(C)C)C(C)C)[C@@H](C)O [R2AW(1-22)] (H-GFMDTAKNVAKNVAATLLDKLK-OH) | >512 | >512 | > 1202 | > 1203 | > 1202 | > 1203 | > 1202 | > 1203 mg/L | > 1202 mg/L | > 1203 | > 1202 | > 1203 | > 1202 | > 1203 mg/L | 1120 | 1480 | 894 | 1420 | 1820 | >512 | MBIC [13]: >512 µM; MBEC [14]: >512 µM; MBIC [14]: >512 µM; MBEC [15]: >512 µM; MBIC [15]: >512 µM; MBEC [16]: >512 µM; MBIC [16]: >512 µM; MBEC [17]: >512 µM; MBIC [17]: >512 µM
